Patent US20200163938A1, “PHARMACEUTICAL COMPOSITION COMPRISING IRON CHELATOR EXHIBITING ANTITUMOR ACTIVITY, ANTIBACTERIAL ACTIVITY AND/OR ANTIVIRUS ACTIVITY, AND HAVING REDUCED SIDE EFFECTS” (priority 2017, published 2020)
“And” between values parts separate entries of the source, which are not always exact repeats. Equal entries are not always repeated. “Also recorded” adds a separate entry of the source. Structures can show the parent of a compound that is named as a salt. Where two headings read alike, the source gives them in different places.

Key:
MCF-7 cells = experiment: Western blot of apoptosis-related factors; type: cell-based, human; conditions: MCF-7 cell lysate; FIG. 12
From the text: (§1) The cell lysate of each type of cells treated with the chelating agents of test groups 6 and 10 was Western-blotted, and then an increase or a decrease in apoptosis-related factors in treated cells was confirmed using the indicated antibodies. […] Concentration-dependent apoptosis induction was also biochemically confirmed.

A549 cells [1] = experiment: Western blot of apoptosis-related factors; type: cell-based, human; conditions: A549 cell lysate; FIG. 12
From the text: as §1

HSC-2 cells [2] = experiment: Western blot of apoptosis-related factors; type: cell-based, human; conditions: HSC-2 cell lysate; FIG. 12
From the text: as §1

[3] = test system: human influenza virus PR8 [A/PUERTORICO/8/34 (H1N1)]; experiment: Suppression of viral infection of MDCK cells; type: cell-based; conditions: 48 hours
Experimental: MDCK cells (canine renal tubule epithelial cells) were infected with a human influenza virus, and then an effect of suppressing the viral infection of MDCK cells was confirmed. Specifically, PR8 [A/PUERTORICO/8/34 (H1N1)] was adjusted at TCID50=2.81×10^6/mL as the influenza virus, the viral liquid and an equivalent amount of the chelating agent of test group 10 (concentration: 100 μg/mL, 250 μg/mL, 500 μg/mL, or 1000 μg/mL) were mixed and then left to stand at room temperature for 30 minutes. The above-prepared viral liquid was added to MDCK cells. After 48 hours, cells were observed, living cells (specifically, non-infected cells) remaining on the bottom of the culture dish were observed under a microscope. Results were as depicted in FIG. 16A.

[4] = test system: subcutaneously-transplanted HCT116 cells; type: in vivo, nude mice (BALB/c nu/nu)
Experimental: Next, the antitumor effects of the chelating agents of test groups 6 and 10 on HCT116-cell subcutaneous transplantation model mice, into which HCT116 cells had been subcutaneously transplanted, were confirmed. Mice prepared herein were nude mice (BALB/c nu/nu, 6 weeks old: Clea Japan Inc.). HCT116 cells were adjusted at 3×10^6/mouse, and then mixed with Matrigel (BD Biosciences) at 1:1. The thus obtained mixture was administered to mice, thereby preparing subcutaneous tumors. The dosage was 200 mg/kg/day (5 times/week administration). […] Tissue sections of HCT116 cells subcutaneously transplanted into the test group 10 administration group were prepared, and then hematoxylin-eosin (HE) staining, and TUNEL staining were performed by the above-mentioned method.

HCT116 cells = experiment: Apoptosis induction, TUNEL staining; type: cell-based, human; conditions: 6.5 µg/mL, 48 hours, FIG. 11B
Experimental: (§2) Furthermore, the apoptosis-inducing effects of the chelating agents of test groups 6 and 10 on tumors were confirmed. First, 100 μg/mL of the chelating agent of test group 6 or 50 μg/mL of the chelating agent of test group 10 was added to HSC-2 cells in a culture solution. After 48 hours of reaction, TUNEL Assay was carried out. Specifically, apoptosis induction was evaluated by the TUNEL staining method using a MK500 in situ Apoptosis Detection Kit (Takara Bio Inc.).
(§3) Similarly, the apoptosis-inducing effects of the chelating agent of test group 6 or 10 on HCT116 cells were confirmed. 10 μg/mL of the chelating agent of test group 6 was added and 6.5 µg/mL of the chelating agent of test group 10 was added to the cells. After 48 hours of reaction, TUNEL staining was carried out similarly to the above.

A549 cells [5] = experiment: Apoptosis induction, TUNEL staining; type: cell-based, human; conditions: 50 μg/mL, 48 hours, FIG. 11C
Experimental: as §2
as §3, with “Further, the” for “Similarly, the”, “on A549” for “on HCT116”, “confirmed. 100” for “confirmed. 10”, “and 50 μg/mL” for “and 6.5 µg/mL”

[6] = test system: human oral squamous cell carcinoma HSC-2; experiment: Antitumor effects, cell viability (XTT method); type: cell-based; conditions: FIG. 10
Experimental: (§4) The antitumor effects of the chelating agents of test groups 1 to 10 on each of human lung cancer cell line A549, human liver cancer cell line PLC, and human colon adenocarcinoma cell line HCT116 were confirmed. A549 cells or PLC cells were seeded at 3000 cells/well, and HCT116 cells were seeded at 6000 cells/well. After 24 hours, the fetal bovine serum (FBS) concentration was changed from 10% to 1%, each compound of the test groups 1 to 10 was introduced into medium. Cell viability was confirmed after 48 hours by the Trypan blue method, or, cell viability was confirmed after 48 hours by performing medium exchange and then after 24 hours by performing the XTT method. Deferoxamine mesylate (Desferal (Trademark)) was used as a positive control. Results are as depicted in FIGS. 1A, 1B, 2 and 3.
(§5) Moreover, similarly to the above experiment on antitumor effects, the antitumor effects of the chelating agent of test group 6 or 10 on each of human breast cancer cell line MCF-7 and human oral squamous cell carcinoma HSC-2 were confirmed.

[7] = test system: human breast cancer cell line MCF-7; experiment: Antitumor effects, cell viability (XTT method); type: cell-based; conditions: FIG. 9
Experimental: as §4, §5

P. gingivalis Pg W83 = experiment: Antibacterial activity, turbidity and ATP assay; type: cell-based, Porphyromonas gingivalis; conditions: anaerobic culture 37° C., 18 hours, OD595 nm; FIG. 8
Experimental: A bacterial strain of one of periodontopathic bacteria, gram-negative bacillus, P. gingivalis, used herein was Pg W83. With the use of a liquid medium prepared by adding the chelating agent of each test group to a modified GAM bouillon medium, anaerobic culture (Anaeropack.anaerobic) was performed at 37° C. for 18 hours. Turbidity was found from optical density (OD595 nm). Results were as depicted in FIG. 8.

[8] = type: in vivo; parameters: NEFA: unit not given here; conditions: for Body weight: rats
Experimental: To a negative control group (saline administration; n=6), the same amount of saline was administered. On day 14 after administration, determining life or death, measurement of body weight, physical items (respiration, body temperature, behavior, etc.) were observed. Moreover, blood samples were taken from each group, and the right kidneys and the livers were removed. Results were as depicted in FIG. 5A to 5C and Tables 4 to 9.

HSC-2 cells [9] = experiment: Apoptosis induction, TUNEL staining; type: cell-based, human; conditions: 50 μg/mL, 48 hours, FIG. 11A
Experimental: as §2

[10] = mouse, in vivo, 300 mg/kg
Experimental: To each of 6-week-old Jcl: ICR mice divided into a test group 6 administration group (n=3), a test group 9 administration group (n=3), and a test group 10 administration group (n=3), the chelating agent of each test group was administered at a dose of 300 mg/kg body weight via tail vein. To a positive control group (administration; n=4), deferoxamine mesylate was administered at a dose of 300 mg/kg body weight via tail vein. On day 7 after administration, determining life or death, and physical items (respiration, body temperature, behavior, etc.) were observed.

[11] = rat blood, oral 200 mg/kg, day 14
[12] = rat blood, oral 1000 mg/kg, day 14
[13] = rat blood, oral 1000 mg/kg, day 14, 1000 mg/kg

Compound: Cl.O=C(O)[C@H](Cc1c[nH]cn1)NCc1ccc(O)c(O)c1O [Test group 10]
- PARP cleaved fragments and caspase-3-cleaved fragments (Western blot) (MCF-7 cells): PARP cleaved fragments and caspase-3-cleaved fragments were confirmed
- PARP cleaved fragments and caspase-3-cleaved fragments (Western blot) (A549 cells [1]): PARP cleaved fragments and caspase-3-cleaved fragments were confirmed
- PARP cleaved fragments and caspase-3-cleaved fragments (Western blot) (HSC-2 cells [2]): PARP cleaved fragments and caspase-3-cleaved fragments were confirmed
- effect of suppressing viral infection ([3]; 500 μg/mL): observed to have the effect of suppressing viral infection
- in vivo apoptosis induction in tumor tissue sections (TUNEL staining) ([4]; HCT116 subcutaneous tumor tissue, 200 mg/kg/day, FIG. 13B): FITC-derived green-stained cell images indicating apoptosis induction were confirmed
- body weight change ([4]; mouse, in vivo, 200 mg/kg/day): no change in body weight was observed
- in vivo antitumor effects ([4]; subcutaneously-transplanted HCT116 cells, nude mice, 200 mg/kg/day (5 times/week), FIGS. 13A, 14): exhibited antitumor effects
- apoptosis-inducing effects (TUNEL staining) (HCT116 cells): green-stained cells indicating apoptosis were confirmed
- apoptosis-inducing effects (TUNEL staining) (A549 cells [5]): green-stained cells (FITC positive cells) indicating apoptosis were confirmed
- antitumor effects on HSC-2 (cell viability) [6]: exhibit antitumor effects
- antitumor effects on MCF-7 (cell viability) [7]: exhibit antitumor effects
- antimicrobial effects on P. gingivalis (turbidity) (P. gingivalis Pg W83): exhibited antimicrobial effects
- ALP [8, 11]: 603 IU/L
- ALT [8, 11]: 33 IU/L
- AST [8, 11]: 61 IU/L
- BUN [8, 11]: 22.5 mg/dL
- CRE [8, 11]: 0.37 mg/dL
- Ca [8, 11]: 11.2 mg/dL
- GLU [8, 11]: 278 mg/dL
- K [8, 11]: 6.1 mEQ/L
- LD [8, 11]: 53 IU/L
- NEFA [8, 11]: 111
- Na [8, 11]: 146 mEQ/L
- T-Bil [8, 11]: 0.06 mg/dL
- TP [8, 11]: 5.5 g/dL
- ALT [8, 12]: 25 IU/L
- CRE [8, 12]: 0.36 mg/dL
- ALP [8, 13]: 592 IU/L and 618 IU/L
- AST [8, 13]: 56 IU/L and 90 IU/L
- BUN [8, 13]: 24.6 mg/dL and 22.8 mg/dL
- Ca [8, 13]: 10.6 mg/dL and 10.5 mg/dL
- GLU [8, 13]: 259 mg/dL and 187 mg/dL
- K [8, 13]: 4.8 mEQ/L and 4.9 mEQ/L
- Na [8, 13]: 142 mEQ/L and 143 mEQ/L
- TP [8, 13]: 5.4 g/dL and 5.7 g/dL
- Body weight ([8]; oral 200 mg/kg): 170.83 g
- Body weight ([8]; oral 1000 mg/kg, 1000 mg/kg): 170.73 g and 185.29 g
- apoptosis-inducing effects (TUNEL staining) (HSC-2 cells [9]): green-stained cells indicating apoptosis were confirmed

Compound: CC(=O)N(O)CCCCCNC(=O)CCC(=O)N(O)CCCCCNC(=O)CCC(=O)N(O)CCCCCN [deferoxamine mesylate, Deferoxamine mesylate]
- effect of suppressing viral infection ([3]; 500 μg/mL or 1000 μg/mL, listed as Desferal): the effect of suppressing viral infection was not observed; also recorded: unable to inhibit viral infection
- life or death [10]: died immediately after administration
